# According to paper PMC11892739, “Site-specific molecular glues for the 14-3-3/Tau pS214 protein–protein interaction via reversible covalent imine tethering” (RSC Medicinal Chemistry, 2025):
# Tested on: 14-3-3ζ/Tau pS2 peptide interaction
# Experiment: Fluorescence anisotropy 14-3-3ζ titration in the presence of 250 μM compound and Tau pS2 peptide
# Assay type: binding
# Conditions: 250 μM compound; 100 nM client peptides, 10 nM Tau pS2 peptide
# Experimental: On the other hand, the PPI stabilizing potency of series 1 compounds was highly dependent on the position and chemical property of the substituent. […] The compound screen for these compounds was further complemented by 14-3-3ζ titration assays in the presence of a constant concentration of compound (250 μM) and Tau pS2 peptide (10 nM) (Fig. 3c, ESI ^† Fig. S6).
# This statement is strengthened by the diminished stabilizing activity when shifting the more polar chloro substituent from the para (14) to the ortho (5) to the meta position (8), respectively. […]
# chromatography (HisTrap high performance cartridges, Cytiva). Typically two 5 mL columns were used for a 2 L culture in which the lysate was loaded on the column, washed with 10 CV wash buffer (50 mM Hepes, pH 8.0, 300 mM NaCl, 25 mM imidazole, 2 mM βME), and eluted with several fractions (2-4 CV) of elution buffer (50 mM Hepes, pH 8.0, 300 mM NaCl, 250 mM imidazole, 2 mM βME). Fractions containing the 14-3-3 protein were combined and dialyzed into 25 mM HEPES pH 8.0, 200 mM NaCl, 10 mM MgCl2, 2 mM βME, followed by dialysis into 25 mM HEPES, 100 mM NaCl, 10 mM MgCl2, 500 μM TCEP (adjusted to pH 8.0). Dialyzed protein was concentrated to ∼40 mg/mL, analyzed by Q -Tof LC/MS, and aliquots were flash -frozen for storage at −80 °C. For 14 -3-3σ∆c, 1 mg TEV per 100 mg purified protein was added to the dialysis to remove the purification tag. The cleaved sample was then again loaded on a 10 mL Ni-NTA column to separate the cleaved product from the expression tag and residual uncleaved protein. The flowthrough was loade d on a Superdex 75 pg 16/60 size exclusion column (GE Life Sciences) using 25 mM HEPES, 100 mM NaCl, 10 mM MgCl2, 500 μM TCEP (adjusted to pH = 8.0) as running buffer. Fractions containing the 14 -3-3 protein were pooled and concentrated to ∼60 mg/mL, analyzed Q -Tof LC/MS, and aliquots were flash -frozen for storage at −80°C.
# Fluorescence Anisotropy – compound titration
# Compound titration assays were performed by titrating compounds (in 1% DMSO, starting at 500 μM) in a 2-fold dilution series to preformed complex of fluorescein -labeled Tau pS2 (10 nM) and 14 -3-3ζ (100 nM) (which represents approximately 20% bound Tau pS2 peptide to 14 -3-3ζ to allow further complex formation by addition of fragments 1) in FA buffer (10 mM HEPES pH 7.4, 150 mM NaCl, 50 µM TCEP, 0.1% (v/v) Tween20, 0.1% (w/v) BSA). Dilution series were made in polystyrene low -volume 384 -well plates (Corning #4514, Black Round Bottom). Measurements were performed directly after plate preparation, using a Tecan SPARK plate reader at room temperature ( λex: 485±20 nm; λem: 535±25 nm; mirror: automatic; flashes: 30; settle time: 1 ms; gain: optimal; Z -position: calculated from well). Wells containing only fluorescein labelled peptide were used to set as G -factor calibrated from these wells. All data were analyzed using GraphPad Prism (10.0.1) and fitted with a four -parameter logistic model (4PL) to determine binding affinities (dissociation constant, KD). All data shown is background corrected for the signal without 14 -3-3ζ and the mean and standard deviation of technical duplicate is plotted, assay performed in a scientific duplicate for hit compounds.
# Fluorescence Anisotropy – 14-3-3 titrations in the presence of compound To characterize the affinity of the Tau peptides for 14-3-3 in the presence of compound, 14-3-3ζ or γ was titrated in a 2-fold dilution series starting at 400 (for the 14-3-3ζ titrations to Tau pS2) or 800 (for the 14-3-3γ titrations to Tau pS214 or pS324) µM. 14-3-3 was added to 10 nM of fluorescein-labeled peptide (Tau pS2, Tau pS214 or Tau pS324) in the presence of 250 µM compound (1% DMSO). The assays were performed in a similar way as described above. Data shown is the average and standard deviation of a technical duplicate, top plateau corrected where needed, assay performed in a scientific duplicate.
# Fluorescence Anisotropy – peptide screen […]
compound,measurement,value
CCc1ccc(-c2nccn2-c2ccc(C=O)c(Br)c2)cc1 [Compound 18],selectivity against panel of 13 14-3-3 client peptides (in words),selective for the 14-3-3ζ/Tau pS2 peptide complex
